Test results published in patent publication US6215002A, “Pyrrolopyrrolone derivatives as inhibitors of neutrophil elastase” (priority 1996, dated 2001).
Structures can show the parent of a compound that is named as a salt.

The compounds below were run against T1, human neutrophil elastase (Homo sapiens, UniProt P08246) (assay: In vitro assay of human neutrophil elastase (HNE)). Settings: 118 nM purified human neutrophil elastase, pH 8.6, 15 min incubation at 30° C., MeO-succinyl-alanyl-alanyl-prolyl-valyl-p-nitroanilide substrate; read-out: HNE IC50.
T1 sequence (P08246 30-267): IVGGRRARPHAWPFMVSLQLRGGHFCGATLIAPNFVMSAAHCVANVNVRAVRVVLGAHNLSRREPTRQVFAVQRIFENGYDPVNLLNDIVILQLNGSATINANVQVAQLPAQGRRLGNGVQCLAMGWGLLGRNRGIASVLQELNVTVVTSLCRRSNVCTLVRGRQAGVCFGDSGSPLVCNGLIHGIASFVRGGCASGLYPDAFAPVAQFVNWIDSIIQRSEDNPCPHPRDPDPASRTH
Assay type: biochemical
Procedure: In Vitro Assays of Human Neutrophil Elastase
118 nM purified human neutrophil elastase
Suitable concentrations of compound under test diluted with water from a 10 mM stock solution in dimethylsulphoxide. Values above are final concentrations after the addition of substrate solution (see below).
The mixture above is incubated for fifteen minutes at 30° C. at which time the remaining elastase activity is measured for 10 minutes in a BioTek 340i plate-reader, after the addition of 0.6 mM MeO-succinyl-alanyl-alanyl-prolyl-valyl-p-nitroanilide. The rate of increase in absorbance at 405 nm is proportional to elastase activity. Enzyme activity is plotted against concentration of inhibitor and an IC50 determined using curve fitting software.
1. The compounds were tested in the in vitro elastase test described earlier in the description.

Row | IC50 [nM] | SMILES
1 | 36 | C=CC[C@H]1C(=O)N(S(=O)(=O)c2ccc3ccccc3c2)[C@H]2CCN(C(=O)OCc3ccccc3)[C@H]12 (relative stereo) [Example 1, rel-(3aS,6R,6aR)-6-Allyl-4-(naphthalene-2-sulfonyl)-5-oxo-hexahydro-pyrrolo[3,2-b]pyrrole-1-carboxylic acid benzyl ester]
2 | 205 | CCC[C@H]1C(=O)N(S(=O)(=O)c2ccc3ccccc3c2)[C@H]2CCN(C(=O)CN3CCCCC3)[C@H]12 (relative stereo) [Example 3, rel-(3R,3aR,6aS)-1-(Naphthalene-2-sulfonyl)-4-(2-piperidin-1-yl-acetyl)-3-propyl-hexahydro-pyrrolo[3,2-b]pyrrol-2-one]
3 | 134 | CC[C@H]1C(=O)N(S(=O)(=O)c2ccc3ccccc3c2)[C@H]2CCN(C(=O)OCc3ccccc3)[C@H]12 (relative stereo) [Example 4, rel-(3aS,6R,6aR)-6-Ethyl-4-(naphthalene-2-sulfonyl)-5-oxo-hexahydro-pyrrolo[3,2-b]pyrrole-1-carboxylic acid benzyl ester]
4 | 205 | CC[C@H]1C(=O)N(S(=O)(=O)c2ccc3ccccc3c2)[C@H]2CCN(C(=O)CCN3CCCCC3)[C@H]12 (relative stereo) [Example 5, rel-(3R,3aR,6aS)-3-Ethyl-1-(naphthalene-2-sulfonyl)-4-(3-piperidin-1-yl-propionyl)-hexahydro-pyrrolo[3,2-b]pyrrol-2-one hydrochloride]
5 | 70 | C=CC[C@H]1C(=O)N(S(C)(=O)=O)[C@H]2CCN(C(=O)OCc3ccccc3)[C@H]12 (relative stereo) [Example 6, rel-(3aS,6R,6aR)-6-Allyl-4-methanesulfonyl-5-oxo-hexahydro-pyrrolo[3,2-b]pyrrole-1-carboxylic acid benzyl ester]
6 | 134 | CCC[C@H]1C(=O)N(S(C)(=O)=O)[C@H]2CCN(S(=O)(=O)c3cn(C)cn3)[C@H]12 (relative stereo) [Example 7, rel-(3R,3aR,6aS)-1-Methanesulfonyl-4-(1-methyl-1H-imidazole-4-sulfonyl)-3-propyl-hexahydro-pyrrolo[3,2-b]pyrrol-2-one]
7 | 29 | CCC[C@H]1C(=O)N(S(C)(=O)=O)[C@H]2CCN(S(=O)(=O)CCCN3CCOCC3)[C@H]12 (relative stereo) [Example 8, rel-(3R,3aR,6aS)-1-Methanesulfonyl-4-(3-morpholin-4-yl-propane-1-sulfonyl)-3-propyl-hexahydro-pyrrolo[3,2-b]pyrrol-2-one]
8 | 54 | CCC[C@H]1C(=O)N(S(C)(=O)=O)[C@H]2CCN(S(=O)(=O)CCCN3CCCCC3)[C@H]12 (relative stereo) [Example 9, rel-(3R,3aR,6aS)-1-Methanesulfonyl-4-(3-piperidin-1-yl-propane-1-sulfonyl)-3-propyl-hexahydro-pyrrolo[3,2-b]pyrrol-2-one]
9 | 39 | CCC[C@H]1C(=O)N(S(C)(=O)=O)[C@H]2CCN(S(=O)(=O)CCCN3CCN(C)CC3)[C@H]12 (relative stereo) [Example 10, rel-(3R,3aR,6aS)-1-Methanesulfonyl-4-[3-(4-methyl-piperazin-1-yl)-propane-1-sulfonyl]3-propyl-hexahydro-pyrrolo[3,2-b]pyrrol-2-one dihydrochloride]
10 | 111 | CCC[C@H]1C(=O)N(S(=O)(=O)c2ccc3ccccc3c2)[C@H]2CCN(S(=O)(=O)CCCCN3CCOCC3)[C@H]12 (relative stereo) [Example 11, rel-(3R,3aR,6aS)-4-(4-Morpholin-4-yl-butane-1-sulfonyl)-1-(naphthalene-2-sulfonyl)-3-propyl-hexahydro-pyrrolo[3,2-b]pyrrol-2-one]
11 | 60 | CCC[C@H]1C(=O)N(S(=O)(=O)c2ccc3ccccc3c2)[C@H]2CCN(S(=O)(=O)CCCN3CCOCC3)[C@H]12 (relative stereo) [Example 12, rel-(3R,3aR,6aS)-4-(3-Morpholin-4-yl-propane-1-sulfonyl)-1-(naphthalene-2-sulfonyl)-3-propyl-hexahydro-pyrrolo[3,2-b]pyrrol-2-one]
12 | 543 | CCC[C@H]1C(=O)N(S(=O)(=O)c2ccc3ccccc3c2)[C@H]2CCN(S(=O)(=O)CCCN3CCCCC3)[C@H]12 (relative stereo) [Example 13, rel-(3R,3aR,6aS)-1-(Naphthalene-2-sulfonyl)-(3-piperidin-1-yl-propane-1-sulfonyl)-3-propyl-hexahydro-pyrrolo[3,2-b]pyrrol-2-one]
13 | 193 | CCC[C@H]1C(=O)N(S(=O)(=O)c2ccc3ccccc3c2)[C@H]2CCN(S(=O)(=O)CCCN3CCN(C)CC3)[C@H]12 (relative stereo) [Example 14, rel-(3R,3aR,6aS)-4-[3-(4-Methyl-piperazin-1-yl)-propane-1-sulfonyl-1-(naphthalene-2-sulfonyl)-3-propyl-hexahydro-pyrrolo[3,2-b]pyrrol-2-one]
14 | 10 | C=CC[C@H]1C(=O)N(S(=O)(=O)c2cccc3ccccc23)[C@H]2CCN(C(=O)OCc3ccccc3)[C@H]12 (relative stereo) [Example 15, rel-(3sS,6R,6aR)-6-Allyl-4-(naphthalene-1-sulfonyl)-5-oxo-hexahydro-pyrrolo[3,2-b]pyrrole-1-carboxylic acid benzyl ester]
15 | 267 | CCC[C@H]1C(=O)N(S(=O)(=O)c2cccc3ccccc23)[C@H]2CCN(C(=O)C3CCN(C(=O)OC(C)(C)C)CC3)[C@H]12 (relative stereo) [Example 16, rel-(3aS,6R,6aR)-4-[4-(Naphthalene-1-sulfonyl)-5-oxo-6-propyl-hexahydro-pyrrolo[3,2-b]pyrrole-1-carbonyl-carbonyl]-piperidine-1-carboxylic acid tert-butyl]
16 | 342 | CCC[C@H]1C(=O)N(S(=O)(=O)c2cccc3ccccc23)[C@H]2CCN(C(=O)C3CCNCC3)[C@H]12 (relative stereo) [Example 17, trifluoroacetate]
17 | 69 | C=CC[C@H]1C(=O)N(S(=O)(=O)c2cccc3c(N(C)C)cccc23)[C@H]2CCN(C(=O)OCc3ccccc3)[C@H]12 (relative stereo) [Example 18, rel-(3aS,6R,6aR)-6-Allyl-4-(5-dimethylamino-naphthalene-1-sulfonyl)-5-oxo-hexahydro-pyrrolo[3,2-b]pyrrole-1-carboxylic acid benzyl ester]
18 | 57 | C=CC[C@H]1C(=O)N(S(=O)(=O)c2ccc3c(c2)CCCC3)[C@H]2CCN(C(=O)OCc3ccccc3)[C@H]12 (relative stereo) [Example 20, rel-(3aS,6R,6aR)-6-Allyl-5-oxo-4-(5,6,7,8-tetrahydro-naphthalene-2-sulfonyl)-hexahydro-pyrrolo[3,2-b]pyrrole-1-carboxylic acid benzyl ester]
19 | 491 | C=CC[C@H]1C(=O)N(S(=O)(=O)Cc2ccccc2)[C@H]2CCN(C(=O)OCc3ccccc3)[C@H]12 (relative stereo) [Example 21, rel-3aS,6R,6aR)-6-Allyl-5-oxo-4-phenylmethanesylfonyl-hexahydro-pyrrolo[3,2-b]pyrrole-1-carboxylic acid benzyl ester]
20 | 60 | CCC[C@H]1C(=O)N(S(=O)(=O)c2ccc3ccccc3c2)[C@H]2CCN(S(C)(=O)=O)[C@H]12 (relative stereo) [Example 22, rel-(3R,3aR,6aS)-4-Methanesulfonyl-1-(naphthalene-2-sulfonyl)-3-propyl-hexahydro-pyrrolo[3,2-b]pyrrol-2-one]
21 | 75 | CCC[C@H]1C(=O)N(S(=O)(=O)c2ccc3ccccc3c2)[C@H]2CCN(S(=O)(=O)Cc3cccc(-c4nnn[nH]4)c3)[C@H]12 (relative stereo) [Example 23, rel-(3R,3aR,6aS)-1(Naphthalene-2-sulfonyl)-3-propyl-4-[3-(1H-tetrazol-5-yl)-phenylmethanesulfonyl]-hexahydro-pyrrolo[3,2-b]pyrrole-2-one]
22 | 9 | CCC[C@H]1C(=O)N(S(=O)(=O)c2ccc3ccccc3c2)[C@H]2CCN(C(C)=O)[C@H]12 (relative stereo) [Example 24, rel-(3R,3aR,6aS)-4-Acetyl-1-(naphthalene-2-sulfonyl)-3-propyl-hexahydro-pyrrolo[3,2-b][pyrrol-2-one]
23 | 59 | CCC[C@H]1C(=O)N(S(=O)(=O)c2ccc3ccccc3c2)[C@H]2CCN(C(=O)CCCN(C)C)[C@H]12 (relative stereo) [Example 25, rel-(3R,3aR,6aS)-4-(4-Dimethylamino-butyryl)-1-(naphthalene-2-sulfonyl)-3-propyl-hexahydro-pyrrolo[3,2-b]-pyrrol-2-one]
24 | 20 | CCC[C@H]1C(=O)N(S(C)(=O)=O)[C@H]2CCN(S(C)(=O)=O)[C@H]12 (relative stereo) [Example 26, rel-(3R,3aR,6aS)-1,4-Bis-methanesulfonyl-3-propyl-hexahydro-pyrrolo[3,2-b]pyrrol-2-one]
25 | 55 | CCC[C@H]1C(=O)N(S(C)(=O)=O)[C@H]2CCN(S(=O)(=O)Cc3cccc(-c4nnn[nH]4)c3)[C@H]12 (relative stereo) [Example 27, rel-(3R,3aR,6aS)-1-Methanesulfonyl-3-propyl-4-[3-(1H-tetrazol-5-yl)-phenylmethanesulfonyl]-hexahydro-pyrrolo[3,2-b]pyrrol-2-one]
26 | 64 | CCC[C@H]1C(=O)N(S(C)(=O)=O)[C@H]2CCN(C(C)=O)[C@H]12 (relative stereo) [Example 28, rel-(3R,3aR,6aS)-4-Acetyl-1-methanesulfonyl-3-propyl-hexahydro-pyrrolo[3,2-b]pyrrol-2-one]
